Primed or numbered codes have the meaning given here. FAM″ = C-terminal FAM dye
Tested on: HeLa cells
Experiment: cell membrane permeability in HeLa cells by flow cytometer
Assay type: cell-based, human
Settings: 20-hour incubation; for MFI (median fluorescence intensity): 10 µM in culture solution, 0.5% DMSO, 37° C., FL2 detector
Experimental: As the eukaryotic cells, HeLa cells (established cell strain derived from a human cervical cancer cell) were used and the cell membrane permeability of the sample 1 was evaluated. In Example 1, the prepared sample solution I was used, and in Example 12, the FAM solution was used.
The HeLa cell was cultured in 10% fetal bovine serum (FBS)-containing Dulbecco's modified Eagle's medium (DMEM (Cat No. 044-29765, manufactured by FUJIFILM Wako Pure Chemical Corporation)), which is a culture medium.
The HeLa cell that adhered to a culture plate was cleaned with PBS and then, a 0.25%-trypsin/EDTA solution was added thereto, and incubation was performed for three minutes at 37° C. After the incubation, the aforementioned 10% FBS-containing DMEM was added to deactivate trypsin and then, five-minute centrifugal separation was performed at 150×g to precipitate the cells. After the supernatant generated by the centrifugal separation was removed, the 10% FBS-containing DMEM was added to the precipitate (cell pellet) to prepare a cell suspension of about 2×10^5 cells/mL. The cell suspension was added by 1 mL to a well of a commercially available six-hole (well) plate (manufactured by AGC TECHNO GLASS Co., Ltd.) so as to seed the cell (about 2× 10^5 cells/well). In addition, the 2 mM sample solution 1 was diluted with the 10% FBS-containing DMEM to prepare the sample solution 1 in which the concentration of the sample 1 was 20 μM. […]
Regarding the obtained cells (cell pellet), the cell membrane permeability of the sample 1 was analyzed using a flow cytometer. […]
Using the aforementioned flow cytometer, gating based on forward scatter (FSC) and side scatter (SSC) was performed to set a gate about a cell group to be analyzed, and the fluorescence intensity was measured about the cell group in this gate. […] The fluorescence intensity was measured using a fluorescence detector FL2 of the flow cytometer (optimum detection wavelength around 543 nm) capable of detecting the fluorescence wavelength of FAM. […]

| Substance | MFI (median fluorescence intensity) | flow cytometer histogram (FIG. 1), cell membrane permeability (10 µM, compared to FAM alone (Example 2)) |
| --- | --- | --- |
| 5 (6)-carboxyfluorescein [Example 2, reference compound] | 10.6 |  |
| Ac-RKLAVYWSTYKRSR-FAM (Ac-RKLAVYWSTYKRSR-{FAM″}) [Example 1] | 14.5 | shifted to the right side compared to the histogram according to Example 2 |

Source: US20260125425A1, “Carrier Peptide Fragment and Use Thereof” (TOAGOSEI CO., LTD., priority 2022, published 2026)
